Reference: patent US6906205B2, “Spiro and dispiro 1,2,4-trioxolane antimalarials” (Medicines for Malaria Venture MMV, priority 2002, dated 2005)
Values after ≈ are worked out from the molar mass of the structure shown.

What was measured:
P. berghei ANKA strain [1] = test: prophylactic activity, single 100 mg/kg po dose before infection; format: in vivo, Plasmodium berghei; settings: reduction of parasitemia day 3 post-infection
Description: Moro NMRI male mice (Fü Albino specific pathogen free) weighing 18±2 g were infected intravenously (i.v.) with 2×10^7 P. berghei ANKA strain-infected erythrocytes from donor mice on day 0 of the experiment. From donor mice with circa 30% parasitemia, heparinized blood was taken and diluted in physiological saline to 10^8 parasitized erythrocytes per ml. An aliquot (0.2 ml) of this suspension was injected i.v. into experimental and control groups of mice. In untreated control mice, parasitemia rose regularly to 40 to 50% by day 3 post-infection and 70 to 80% by day 4 post-infection. The mice died between days 5 and 7 post-infection. Throughout the experiments, mice were kept in groups of three or five animals in Makrolon type II cages in an air-conditioned animal room at 22 to 23° C. A diet with p-aminobenzoic acid (PABA) of 45 mg (NAFAG FUTTER© food N^o 9009 PAB-45) per kg of body weight, and tap water is available ad libitum.
OZ compounds were prepared at an appropriate concentration, either as a solution or a suspension containing SSV (0.5% w/v CMC, 0.5% v/v benzyl alcohol, 0.4% v/v Tween 80, and 0.9% w/v sodium chloride in water). They were administered per os (p.o.) in a total volume of 0.01 ml per gram of mouse. The activity of the compound was determined by a variety of methods outlined in subsequent sections. Survival time was also recorded, and survival to day 30 post-infection was considered to be a cure.
Prophylactic activities of the compounds were compared after administering po single dose of 100 mg/kg to different groups of five animals at various times before infection. All groups including an untreated control group, were then infected at the same time. Parasitemia was determined for each animal on day 3 post-infection, and percent of reduction of the level of parasitemia compared to levels for animals given no drug is determined.

[2] = tested on: Schistosoma mansoni 21-day-old schistosomules; test: effect on 21-day-old schistosomules in mice; format: in vivo; settings: single 200 mg/kg per os, female mice
Description: All groups were killed 4 weeks after treatment and the liver and intestine were removed and separated. The liver and intestine were compressed and alive male and female worms could be seen and counted. The effect of the compounds was evaluated by mean total and female worm burden.

[3] = tested on: Schistosoma mansoni adult schistosomes (49-day-old); test: effect on adult schistosomes (49-day-old) in mice; format: in vivo; settings: single 400 mg/kg per os
Description: Mice were infected with 100 Schistosoma mansoni cercariae […]. Each group was treated per os with OZ compounds at single doses of 200, 400, and 600 mg/kg. […] All groups were killed 4 weeks after treatment and the liver and intestine were removed and separated. The liver and intestine were compressed and alive male and female worms could be seen and counted.

[4] = tested on: ANKA strain of Plasmodium berghei; test: single dose ED50/ED90/ED99 determinations in infected mice; format: in vivo; settings: single dose po in SSV, mice, percent reduction in parasitemia on day three post-infection
Outline: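 Mice (Moro SPF or NMRI, n=3 per group) infected with P. berghei ANKA received a single dose on day 1 post-infection, vehicle 0.5% CMC/0.5% benzyl alcohol/0.4% Tween 80/0.9% NaCl in water. Read-out is percent reduction in parasitemia on day 3; ED values by nonlinear fitting.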

P. berghei ANKA strain [5] = test: treatment: 3x3 mg/kg and 3x1 mg/kg po divided doses in infected mice; format: in vivo, Plasmodium berghei; settings: for Activity (%) p.o. SSV: percent reduction of parasitemia day 4
Outline: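 NMRI mice infected i.v. with 2×10^7 P. berghei ANKA-parasitized erythrocytes on day 0, then dosed orally in SSV vehicle at 3×3 or 3×1 mg/kg on days 1–3. Day-4 Giemsa smears gave percent parasitemia reduction versus untreated controls; survival to day 30 counted as cure.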

Schistosoma japonicum = test: effect in mice infected with Schistosoma japonicum; format: in vivo; settings: age of worm 35 days, 400 mg/kg x 1
[6] = tested on: P. falciparum K1 strain (Thailand resistant to chloroquine); test: semiautomated microdilution assay, [3H]-hypoxanthine incorporation, K1 strain; format: cell-based, Plasmodium falciparum; settings: K1 strain, 72 h incubation
Outline: (§1)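 Compounds were tested against intraerythrocytic parasites taken from asynchronous stock cultures, using semiautomated microdilution. IC50 values were estimated by logit regression analysis.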

[7] = tested on: parasitemia (malaria infection); test: onset of action and recrudescence experiments; format: in vivo; settings: single 100 mg/kg po (SSV) on day +3 post-infection; recrudescence = >5% parasitemia; followed up to 60 days; (n/5) = animals
Description: The onset of drug action was determined after a single fixed dose of 100 mg/kg (SSV vehicle) po to groups of five animals on day +3 post-infection (day 0).

[8] = tested on: P. falciparum NF54 strain (sensitive to standard antimalarials); test: semiautomated microdilution assay, [3H]-hypoxanthine incorporation, NF54 strain; format: cell-based, Plasmodium falciparum; settings: NF54 strain, 72 h incubation
Outline: as §1

dosing in rats = format: in vivo; settings: rat
Description: (§2) Artesunate is listed as a reference compound.

dosing in dogs = format: in vivo; settings: dog
Description: as §2

[9] = tested on: ANKA strain of P. berghei; test: single dose STI in vivo screen in infected mice; set-up: species or system Plasmodium berghei
Outline: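 Groups of 3-5 Moro SPF or NMRI mice infected with the ANKA strain of P. berghei received a single dose of trioxolane on day one post-infection. The compound was given in 3% ethanol and 7% Tween 80 or in SSV (0.5% w/v CMC, 0.5% v/v benzyl alcohol, 0.4% v/v Tween 80, 0.9% w/v sodium chloride in water). Antimalarial activity was scored as percent reduction in parasitemia on day three and as survival time versus untreated controls. Survival to day 30 counted as cure.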

[10] = chemical properties of OZ277 salts; settings: salt of OZ277
P. berghei ANKA strain [11] = test: treatment: 3x10 mg/kg p.o. divided dose vs 1x30 mg/kg po single dose in infected mice; format: in vivo, Plasmodium berghei; settings: for Activity (%) p.o. SSV: percent reduction of parasitemia day 4
Description: Moro NMRI male mice (Fü Albino specific pathogen free) weighing 18±2 g were infected intravenously (i.v.) with 2×10^7 P. berghei ANKA strain-infected erythrocytes from donor mice on day 0 of the experiment. From donor mice with circa 30% parasitemia, heparinized blood was taken and diluted in physiological saline to 10^8 parasitized erythrocytes per ml. An aliquot (0.2 ml) of this suspension was injected i.v. into experimental and control groups of mice. […] Throughout the experiments, mice were kept in groups of three or five animals in Makrolon type II cages in an air-conditioned animal room at 22 to 23° C.
They were administered per os (p.o.) in a total volume of 0.01 ml per gram of mouse. The activity of the compound was determined by a variety of methods outlined in subsequent sections. Survival time was also recorded, and survival to day 30 post-infection was considered to be a cure.
The first experiment conducted consisted of administration of a divided 3×10 mg/kg p.o. dose administered on days 1, 2, and 3 post-infection vs. a single 1×30 mg/kg po dose administered on day 1 post-infection. On day 4 post-infection, blood smears of all animals were prepared and stained with Giemsa. […] Compounds were administered orally in the SSV vehicle.

[12] = single 100 mg/kg po 24 h before infection
[13] = 3 × 1 mg/kg days 1, 2, 3 post-infection
[14] = 3 × 3 mg/kg days 1, 2, 3 post-infection
[15] = 1 × 30 mg/kg single dose day 1 post-infection
[16] = 3 × 10 mg/kg days 1, 2, 3 post-infection

Row | Compound | Prophylactic Activity (%) (P. berghei ANKA strain [1]; [12]) | Prophylactic Activity (%) (P. berghei ANKA strain [1]; single 100 mg/kg po at 0 h) | % reduction of schistosomule growth at day 21 after per os application of 200 mg/kg, FWR (%) [2] | % reduction of schistosomule growth at day 21 after per os application of 200 mg/kg, TWR (%) [2] | % reduction of adult worms growth at day 49 after per os application of 400 mg/kg, TWR (%) [3] [%] | ED90 [4] [mg/kg] | ED99 [4] [mg/kg] | Activity (%) p.o. SSV (P. berghei ANKA strain [5]; [13]) [%] | Activity (%) p.o. SSV (P. berghei ANKA strain [5]; [14]) [%] | IC50 (ng/ml) K1 [6] [ng/mL] | IC50 (ng/ml) NF54 [8] [ng/mL] | Chemical Stability [10] | Crystallinity [10] | Particle size (90% of particles less than) [10] | Physical stability [10] | Stability in analytical solution (up to 24 hrs) [10] | further results
1 | CO[C@H]1O[C@@H]2O[C@@]3(C)CC[C@H]4[C@H](C)CC[C@@H]([C@H]1C)[C@@]24OO3 [AM, artemether, reference compound] | 0 | 100 | (n4) 85% | (n4) 85% | 53 | 4.2 | 7.1 | 51 | 86 | – | – | – | – | – | – | – | FWRR/% (female worm reduction rate) (Schistosoma japonicum): 71%; Mice without ♀ worm (Schistosoma japonicum): 0/7; WRR/% (worm reduction rate) (Schistosoma japonicum): 62%; MTWB/x ± SD (mean total worm burden) (Schistosoma japonicum; control 26.6 ± 4.2): 10.1 ± 4.4
2 | O=C(C[C@H]1CC[C@]2(CC1)OOC1(O2)C2CC3CC(C2)CC1C3)NO (some centres unmarked) [OZ175] | – | – | – | – | – | 6.2 | 9.9 | – | – | 1.4 (≈ 4.15 nM) | 2.0 (≈ 5.93 nM) | – | – | – | – | – | ED50 [4]: 3.5 mg/kg; Time of Recrudescence [7]: 13.0 days
3 | NC(=O)CNC[C@H]1CC[C@]2(CC1)OOC1(O2)C2CC3CC(C2)CC1C3 (some centres unmarked) [OZ256] | – | – | 86% | 85% | 10 | – | – | – | – | 0.3 (≈ 0.856 nM) | 0.2 (≈ 0.571 nM) | – | – | – | – | – | adult worms at day 49, per os 400 mg/kg, DEAD WORM (%) [3]: 19%; IV t1/2 (10 mg/kg) (dosing in rats; IV 10 mg/kg): 1.57 h; Oral Bioavailability 10 mg/kg (dosing in rats; oral 10 mg/kg): 18.6%; Oral Bioavailability 25 mg/kg (dosing in rats; oral 25 mg/kg): 51.9%; Oral t1/2 (25 mg/kg) (dosing in rats; oral 25 mg/kg): 1.22 h; IV t1/2 (10 mg/kg) (dosing in dogs; IV 10 mg/kg): 1.42 h; Oral t1/2 (10 mg/kg) (dosing in dogs; oral 10 mg/kg): 1.38 h; Oral Bioavailability 10 mg/kg (dosing in dogs; oral 10 mg/kg, OZ 279, OZ 256, OZ 209 values flagged (V)): 42.0%; Oral Bioavailability 25 mg/kg (dosing in dogs; oral 25 mg/kg, OZ 279, OZ 256, OZ 209 values flagged (V)): 38.3%; Activity (%) po ([9]; percent reduction in parasitemia day 3 post-infection, single 10 mg/kg po in 3% ethanol and 7% Tween 80, mice): 99.70%; Activity (%) sc ([9]; percent reduction in parasitemia day 3 post-infection, single 10 mg/kg sc in 3% ethanol and 7% Tween 80, mice): 99.95%; Activity (%) SSVpo ([9]; percent reduction in parasitemia day 3 post-infection, single po dose in standard suspending vehicle (SSV), mice): 99.67%; Survival (days) po ([9]; single 10 mg/kg po in 3% ethanol and 7% Tween 80, untreated control 5.6 ± 0.3): 8.7 days; Survival (days) sc ([9]; single 10 mg/kg sc in 3% ethanol and 7% Tween 80, untreated control 5.6 ± 0.3): 9.7 days; Survival (days) SSVpo ([9]; single po dose in SSV, untreated control 5.6 ± 0.3): 8.7 days
4 | CC(C)(N)CNC(=O)CC1CCC2(CC1)OOC1(O2)C2CC3CC(C2)CC1C3.O=C(O)CCC(=O)O (centres unmarked) [Succinate] | – | – | – | – | – | – | – | – | – | – | – | Stable | Crystalline | ˜150 μm | Stable | Stable | –
5 | CC(C)(N)CNC(=O)CC1CCC2(CC1)OOC1(O2)C2CC3CC(C2)CC1C3.Cc1ccc(S(=O)(=O)O)cc1 (centres unmarked) [Tosylate] | – | – | – | – | – | – | – | – | – | – | – | Stable | Crystalline | ˜50 μm | Stable | Stable | –
6 | Cc1ccc(S(=O)(=O)O)cc1.O=C(CC1CCC2(CC1)OOC1(O2)C2CC3CC(C2)CC1C3)N1CCNCC1 (centres unmarked) [compound 279] | 97 | 100 | – | – | – | – | – | 83 | 100 | – | – | – | – | – | – | – | Prophylactic Activity (%) (P. berghei ANKA strain [1]; single 100 mg/kg po 48 h before infection): 27%; Prophylactic Activity (%) (P. berghei ANKA strain [1]; single 100 mg/kg po 72 h before infection): 14%; Survival (days) p.o. SSV (P. berghei ANKA strain [11]; [15]): 14.8 days; Activity (%) p.o. SSV (P. berghei ANKA strain [11]; [15]): 99.95%; Cures (P. berghei ANKA strain [11]; 1 × 30 mg/kg, survival to day 30 post-infection = cure, cured/treated mice): 0/5; Survival (days) p.o. SSV (P. berghei ANKA strain [11]; [16]): 25.4 days; Activity (%) p.o. SSV (P. berghei ANKA strain [11]; [16]): 100%; Survival (days) p.o. SSV (P. berghei ANKA strain [5]; [13]): 8.8 days; Survival (days) p.o. SSV (P. berghei ANKA strain [5]; [14]): 14.8 days
